row,SMILES,melting point
1,CC1=C(C(=O)OCCN(Cc2ccccc2)Cc2ccccc2)C(c2ccccc2C(F)(F)F)c2c(ccnc2OC(C)C)N1 (centres undefined),132 to 133 °C
2,COC(=O)C=Cc1cccc2[nH]ccc12,113 to 115 °C
3,C=C(C)CONC(=O)c1nc(-c2ccc(Cl)c(OC)c2F)cc(N)c1Cl,147 to 149 °C
4,O=C(NCc1ccccc1)c1ccnc(N2CCN(Cc3ccc(F)cc3)C2=O)c1,99 to 101 °C
5,"CC(CO)C(O)(Cn1cncn1)c1ccc(Cl)cc1Cl (single isomer, unassigned; (+))",110 to 111 °C
6,COC(=O)C1=C(C)NC(=O)N(C(=O)OC)C1c1cccc([N+](=O)[O-])c1 (centres undefined),152 to 155 °C
7,O=C1c2ccccc2C(=O)N1CCOc1cc(F)ccc1O,172 °C
8,N#CCCc1c(-c2ccccc2)c(=O)[nH]c2cc(Cl)ccc12,252 to 254 °C
9,COc1ccc(-c2[nH]c3ccc(Cl)cc3c2-c2ccc(S(C)(=O)=O)cc2)cc1,246 to 248 °C
10,NC(=O)COc1ccccc1N,117 °C
11,CCC(C)Nc1c(C(F)(F)F)cc([N+](=O)[O-])c(Cl)c1[N+](=O)[O-] (centres undefined),90.5 to 91.5 °C
12,CCOCc1cc2c(cc1C#Cc1ccccc1)NC(=O)CC(c1cccc(C#N)c1)=N2,229 °C
13,Oc1ccc(CCCn2ccnc2)cc1,158 to 160 °C
14,O=C(O)Cc1ccc2c3c(ccc2c1)OCC3,181 to 183 °C
15,CCOC(=O)c1c(C)nc(-c2ccccc2)nc1-c1ccc(F)cc1,82 to 94 °C
16,CC1(C)CN=C(Cc2ccc(Cl)cc2)NC1,130 to 132 °C
17,CC1CSC(=O)C2Cc3ccccc3N2C1=O (centres undefined),108 to 110 °C
18,COc1ccc(Cn2c(=O)cc(C)c3cnc(N4CCC[C@H]4CO)nc32)cc1Cl,150 to 153 °C
19,Cc1ccc(-n2c(-c3ccc(Br)cc3)c(Br)c(Br)c2-c2ccc(Br)cc2)cc1,240 to 242 °C
20,CCOC(=O)c1oc(-c2ccc(Cl)cc2)nc1C,80 to 81 °C
21,Cc1nc(-c2ccc(=O)[nH]c2C)cs1,188 to 190 °C
22,CCOC(=O)c1ccc(NCCCc2ccccc2OC)cc1,106 to 109 °C
23,Cc1ccc2[nH]c3c(c2c1)C(C(=O)O)CCC3 (centres undefined),194 to 197 °C
24,CCOC(=O)c1ccc(/C=C/c2ccc(O)c(C3(C)CCCCC3)c2)cc1,149 °C
25,CN(Cc1cc2c3c(c1)c(=O)c(C(=O)NCc1ccc(F)cc1)cn3CC(=O)N2C)C[C@@H](O)c1ccco1,150 to 152 °C

row,SMILES,melting point
1,CCOC(=O)c1cc2cc(N3CCN(C(=O)OC(C)(C)C)CC3)ccc2o1,116 to 118 °C
2,COCCc1nc2c(N)nc3ccccc3c2n1CCOCCN(C)C(=O)c1ccccc1,93.5 to 97 °C
3,O=C(Nc1ccc2scnc2c1C1CCN(C/C=C/c2ccc(Cl)cc2)CC1)c1ccnc(Cl)c1,99 to 103 °C
4,NCCCn1nc2c3c(c(Cl)ccc31)C(=O)c1c(OCc3ccccc3)ccc(OCc3ccccc3)c1-2,180 to 184 °C
5,N#Cc1ccc2c(c1)C(=O)CC2,109 °C
6,COc1cc(-c2ccc(Cl)cc2)nc2c(C(=O)Nc3cccc(S(C)(=O)=O)c3)cnn12,265 °C
7,O=C(NC(Cc1ccc(OCc2ccccc2)cc1)C(=O)O)c1cc2ccc(-c3ccc(Cl)cc3)cc2[nH]1 (centres undefined),202 to 204 °C
8,CCCc1c(OCCCCCOc2cc(OCCCC(=O)OC)ccc2CCC(=O)OC)ccc2c1OCCC2=O,58 to 59 °C
9,Cc1ccc(C(=O)c2ccc(CC(=O)O)n2C)c(Cl)c1,176 to 178 °C
10,CC(C)Oc1ccc(C(=O)n2nc(Nc3cccc(N4CCCCC4)c3)nc2N)cc1,121 to 124 °C
11,CON=Cc1ccc(-c2ccccc2NC(=O)c2c(C)nn(C)c2F)cc1,114 to 116 °C
12,Cc1cc(OCc2cnc(-c3ccc(C(F)(F)F)cc3)nc2C2CC2)ccc1OC(C)(C)C(=O)O,191 to 192 °C
13,CCCCCCCCCCCCCCCCCCOc1ccc(C=Cc2ccc(S(=O)(=O)CCCO)cc2)cc1,137 °C
14,COc1ccc(C(=O)c2c(N)sc3c2CCN(C(=O)c2ccc(Cl)cc2)C3)cc1OC,138 to 140 °C
15,C1=C(c2cccc3ccccc23)CCN(Cc2ccccc2)C1,72 to 74 °C
16,CCC(O)(CC)CCN1CCC(c2noc3cc(F)ccc23)CC1,50 to 53 °C
17,CN(Cc1ccc(OC(C)(C)C(=O)O)cc1)c1ccc(Cl)cc1,63 to 65 °C
18,CC(=O)Oc1ccc2ncnc(Nc3ccc(OCc4ccccn4)c(C)c3)c2c1,149 to 151 °C
19,COC1(c2ccc(F)cc2)CCC(=O)CC1,57 to 59 °C
20,COC(=O)C1CCCN1S(=O)(=O)c1ccc(Cl)c(COc2cccn3c(C(C)=O)c(C)nc23)c1Cl (centres undefined),178 °C
21,CCCOC(C(=O)O)c1ccc2c(c1)C(C)(C)CCC2(C)C (racemic),84 to 86 °C
22,Cc1nn(C)c(C)c1C(=O)NC/C=C\COc1cc(CN2CCCCC2)ccn1,75 to 77 °C
23,COc1ccc(-c2c(NC(=O)Nc3ccc(F)cc3F)c(=O)oc3ccc(Cl)cc23)cc1OC,267 to 270 °C
24,Cc1c(C(=O)Cl)c(C)c2cccc(C)c2c1C,216 °C

# Reference: a melting point compilation (Tetko et al.; mined from patent text by program, amines drawn as free bases though some values may be those of a salt)
